Data taken from patent US20240247031A1, “COMPOSITION FOR TREATING CANCER CONTAINING TELOMERASE-TARGETING GNRH ANTAGONIST-DERIVED PEPTIDE HS1002” (Research & Business Foundation Sungkyunkwan University, priority 2023, published 2024).
≈ marks a conversion by molar mass, not a printed value. Where a SMILES comes first, the peptide text is derived from it. [ ]: non-standard residue; d: D form. pGlu = O=C1CC[C@@H](C(=O)O)N1

Assays:
[1] = test system: PC3; test: MTT cytotoxicity on various cancer cells (Table 1); assay type: cell-based, human; conditions: for Cytotoxicity (IC50) PC3: human, 48 h
Method: (§1) To evaluate anticancer activities of the produced peptides on various types of cancer cells, MTT analysis was performed. Human prostate cancer cell lines (LNCaP, PC3, and DU145), human breast cancer cell lines (MDA-MB-231 and MCF-7), lung cancer cell line (A549), and ovarian cancer cell line (SKOV3) were cultured in RPMI media supplemented with 1% penicillin/streptomycin and 1% fetal bovine serum (all from Life Technologies, Grand Island, NY). The cells were seeded in 96-well plates containing 100 μL of growth media for 24 h. The media were removed, and then 100 μL of the peptide (solvent DPBS) at each concentration was added to each well and incubated at 37° C. for 48 h. After incubation for 48 h, 100 μL of MTT reagent was added to each well. The cells were incubated at 37° C. for 4 h, and then the supernatant was removed. Formazan crystals were dissolved in 100 μL of DMSO with gentle stirring at 37° C. for 10 min. The absorbance per well was measured at 540 nm using a VERSA max microplate reader (Molecular Devices Corp.).

[2] = test system: DU145; test: MTT cytotoxicity on various cancer cells (Table 1); assay type: cell-based, human; conditions: for Cytotoxicity (IC50) DU145: human, 48 h
Method: as §1

[3] = test system: A549; test: MTT cytotoxicity on various cancer cells (Table 1); assay type: cell-based, human; conditions: for Cytotoxicity (IC50) A549: human, 48 h
Method: as §1

[4] = test system: SKOV3; test: MTT cytotoxicity on various cancer cells (Table 1); assay type: cell-based, human; conditions: for Cytotoxicity (IC50) SKOV3: human, 48 h
Method: as §1

[5] = test system: LNCaP; test: cells; assay type: cell-based, human; conditions: 48 h; for Cytotoxicity (IC50) LNCaP: human
Method: as §1

[6] = test system: MCF-7; test: cells; assay type: cell-based, human; conditions: for Cytotoxicity (IC50) MCF-7: human, 48 h
Method: as §1

[7] = biological target: T1, gonadotropin-releasing hormone (GnRH) receptor (UniProt P30968 1-328, limits assumed); test: cell-based or functional assay
T1 sequence (looked up): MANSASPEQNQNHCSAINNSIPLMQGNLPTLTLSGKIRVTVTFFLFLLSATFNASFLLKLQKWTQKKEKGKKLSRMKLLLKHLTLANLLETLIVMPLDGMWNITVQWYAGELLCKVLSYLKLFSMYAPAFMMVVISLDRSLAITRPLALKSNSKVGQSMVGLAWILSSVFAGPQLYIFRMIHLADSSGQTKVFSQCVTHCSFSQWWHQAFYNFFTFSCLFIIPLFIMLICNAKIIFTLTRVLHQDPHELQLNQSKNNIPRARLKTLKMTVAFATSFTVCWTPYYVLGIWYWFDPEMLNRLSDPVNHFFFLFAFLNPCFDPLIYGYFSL

`CC(=O)O[C@H]1C(=O)[C@@]2(C)[C@H]([C@H](OC(=O)c3ccccc3)[C@]3(O)C[C@H](OC(=O)[C@H](O)[C@@H](NC(=O)c4ccccc4)c4ccccc4)C(C)=C1C3(C)C)[C@]1(OC(C)=O)CO[C@@H]1C[C@@H]2O` [PTX, Paclitaxel, reference compound] was tested, and the IC50 ([1]; Homo sapiens, PC-3, 48 h, read-out: Cytotoxicity (IC50) PC3) was 59.4 ± 3.21 µg/mL (≈ 69.6 µM), the IC50 ([2]; Homo sapiens, DU-145, 48 h, read-out: Cytotoxicity (IC50) DU145) was 0.73 ± 0.04 µg/mL (≈ 0.855 µM) and the IC50 ([3]; Homo sapiens, A549, 48 h, read-out: Cytotoxicity (IC50) A549) was 3.62 ± 0.04 µg/mL (≈ 4.24 µM). The IC50 ([4]; Homo sapiens, SK-OV-3, 48 h, read-out: Cytotoxicity (IC50) SKOV3) was 5.41 ± 0.19 µg/mL (≈ 6.34 µM), the IC50 ([5]; Homo sapiens, LNCaP, read-out: Cytotoxicity (IC50) LNCaP) was 0.81 ± 0.09 µg/mL (≈ 0.949 µM) and the IC50 ([6]; Homo sapiens, MCF7, 48 h, read-out: Cytotoxicity (IC50) MCF-7) was 9.27 ± 1.12 µg/mL (≈ 10.9 µM).

With `CCNC(=O)[C@@H]1CCCN1C(=O)[C@@H](NC(=O)[C@H](Cc1ccccc1)NC(=O)[C@H](CCCNC(=N)N)NC(=O)[C@@H]1CCCN1C(=O)[C@H](C)NC(=O)[C@H](Cc1ccc(O)cc1)NC(=O)[C@H](CO)NC(=O)[C@H](Cc1c[nH]c2ccccc12)NC(=O)[C@H](Cc1c[nH]cn1)NC(=O)[C@@H]1CCC(=O)N1)[C@@H](C)CC` [HS1003] ([pGlu]HWSYAPRFIP-NHEt; C-terminus assumed) the “Cytotoxicity (IC50) PC3” value [1] was 24.05 ± 1.13 µg/mL, the “Cytotoxicity (IC50) DU145” value [2] was 12.37 ± 0.31 µg/mL and the “Cytotoxicity (IC50) A549” value [3] was 9.48 ± 0.08 µg/mL. For the same molecule, the “Cytotoxicity (IC50) SKOV3” value [4] was 5.79 ± 0.38 µg/mL, the “Cytotoxicity (IC50) LNCaP” value [5] was 10.9 ± 0.48 µg/mL and the “Cytotoxicity (IC50) MCF-7” value [6] was 47.28 ± 2.05 µg/mL.

With `CCNC(=O)[C@@H]1CCCN1C(=O)[C@@H](NC(=O)[C@H](Cc1ccccc1)NC(=O)[C@H](C)NC(=O)[C@H](CC(C)C)NC(=O)[C@H](CCCNC(=N)N)NC(=O)[C@H](Cc1ccc(O)cc1)NC(=O)[C@H](CO)NC(=O)[C@H](Cc1c[nH]c2ccccc12)NC(=O)[C@H](Cc1c[nH]cn1)NC(=O)[C@@H]1CCC(=O)N1)[C@@H](C)CC` [HS1004] ([pGlu]HWSYRLAFIP-NHEt; C-terminus assumed) the “Cytotoxicity (IC50) PC3” value [1] was 16.49 ± 0.74 µg/mL, the “Cytotoxicity (IC50) DU145” value [2] was 17.54 ± 0.74 µg/mL and the “Cytotoxicity (IC50) SKOV3” value [4] was 5.19 ± 0.82 µg/mL. For the same molecule, the “Cytotoxicity (IC50) LNCaP” value [5] was 9.97 ± 0.85 µg/mL and the “Cytotoxicity (IC50) MCF-7” value [6] was 37.47 ± 1.58 µg/mL.

In the case of `CC(C)C[C@H](NC(=O)[C@H](C)NC(=O)[C@@H]1CCCN1C(=O)[C@H](CCCNC(=N)N)NC(=O)[C@H](C)NC(=O)[C@@H](N)CCC(=O)O)C(=O)N[C@@H](CC(C)C)C(=O)N[C@@H](CO)C(=O)N[C@H](C(=O)N[C@@H](CCCNC(=N)N)C(=O)N[C@@H](Cc1ccccc1)C(=O)N[C@@H](CCCNC(=N)N)C(=O)N1CCC[C@H]1C(=O)N[C@@H](CCCCN)C(=O)O)[C@@H](C)O` [HS1005] (H-EARPALLSTRFRPK-OH; N-terminus and C-terminus assumed), the “Cytotoxicity (IC50) PC3” value [1] is reported as 13.31 ± 1.05 µg/mL, the “Cytotoxicity (IC50) DU145” value [2] is reported as 16.17 ± 1.28 µg/mL and the “Cytotoxicity (IC50) A549” value [3] is reported as 14.75 ± 0.83 µg/mL. For the same molecule, the “Cytotoxicity (IC50) SKOV3” value [4] was 14.08 ± 1.04 µg/mL, the “Cytotoxicity (IC50) LNCaP” value [5] was 11.23 ± 1.01 µg/mL and the “Cytotoxicity (IC50) MCF-7” value [6] was 44.15 ± 2.63 µg/mL.

In the case of `CC(C)C[C@H](NC(=O)CNC(=O)[C@@H](NC(=O)[C@H](CO)NC(=O)[C@H](CC(C)C)NC(=O)[C@H](CC(C)C)NC(=O)[C@H](C)NC(=O)[C@@H]1CCCN1C(=O)[C@H](CCCNC(=N)N)NC(=O)[C@H](C)NC(=O)[C@@H](N)CCC(=O)O)[C@@H](C)O)C(=O)N[C@@H](CCCNC(=N)N)C(=O)N1CCC[C@H]1C(=O)N[C@@H](CCCCN)C(=O)O` [HS1006] (H-EARPALLSTGLRPK-OH; N-terminus and C-terminus assumed), the “Cytotoxicity (IC50) PC3” value [1] is reported as 15.2 ± 1.12 µg/mL, the “Cytotoxicity (IC50) DU145” value [2] is reported as 19.46 ± 0.26 µg/mL and the “Cytotoxicity (IC50) A549” value [3] is reported as 10.68 ± 0.25 µg/mL. The “Cytotoxicity (IC50) SKOV3” value [4] was 13.91 ± 1.17 µg/mL, the “Cytotoxicity (IC50) LNCaP” value [5] was 14.17 ± 0.47 µg/mL and the “Cytotoxicity (IC50) MCF-7” value [6] was 55.24 ± 2.41 µg/mL.

In the case of `CC(C)C[C@H](NC(=O)[C@H](C)NC(=O)[C@@H]1CCCN1C(=O)[C@H](CCCNC(=N)N)NC(=O)[C@H](C)NC(=O)[C@@H](N)CCC(=O)O)C(=O)N[C@@H](CC(C)C)C(=O)N[C@@H](CO)C(=O)N[C@H](C(=O)N[C@@H](CCCNC(=N)N)C(=O)N[C@@H](CC(C)C)C(=O)N[C@@H](CCCNC(=N)N)C(=O)N1CCC[C@H]1C(=O)O)[C@@H](C)O` [HS1001] (H-EARPALLSTRLRP-OH; N-terminus and C-terminus assumed), the “Cytotoxicity (IC50) PC3” value [1] is reported as 8.05 ± 1.58 µg/mL, the “Cytotoxicity (IC50) DU145” value [2] is reported as 7.82 ± 0.37 µg/mL and the “Cytotoxicity (IC50) A549” value [3] is reported as 4.18 ± 0.15 µg/mL. For the same molecule, the “Cytotoxicity (IC50) SKOV3” value [4] was 6.14 ± 0.79 µg/mL, the “Cytotoxicity (IC50) LNCaP” value [5] was 6.55 ± 0.96 µg/mL and the “Cytotoxicity (IC50) MCF-7” value [6] was 48.26 ± 1.23 µg/mL.

B1: peptide HS1002 (peptide)
peptide: [pGlu]HWSYRLRFIP-NHEt
SMILES: CCNC(=O)[C@@H]1CCCN1C(=O)[C@@H](NC(=O)[C@H](Cc1ccccc1)NC(=O)[C@H](CCCNC(=N)N)NC(=O)[C@H](CC(C)C)NC(=O)[C@H](CCCNC(=N)N)NC(=O)[C@H](Cc1ccc(O)cc1)NC(=O)[C@H](CO)NC(=O)[C@H](Cc1c[nH]c2ccccc12)NC(=O)[C@H](Cc1c[nH]cn1)NC(=O)[C@@H]1CCC(=O)N1)[C@@H](C)CC
In the case of B1, the “CRE-luciferase activity in HEK293-GnRHR cells” value [7] is reported as 2 fold.
